We go through six compounds from patent US7232852B2, “Photopolymerizable compositions that include alicyclic/aromatic dioxiranes and novel dioxiranyl tetraoxaspiro [5.5] undecanes” (Curators of the University of Missouri, priority 2002, dated 2007).

A short description of data set [1]: Solubility of TOSUs in oxirane coreactant systems. Type of data set: physicochemical. The following applies: 25° C.
A short description of data set [2]: Photoinitiated solution homopolymerization of BMOCHM-TOSU (FTIR, gel point). Conditions: post irradiation, 20 wt % in methylene chloride. In kind it is physicochemical. As for the experimental part: The effect of irradiation time on the photoinitated homopolymerization of BMOCHM-TOSU monomer (20 wt % in methylene chloride) was evaluated by gel point determination and by FTIR spectroscopy. Selected IR absorption bands in the reaction mixture characteristic of hydroxyl, carbonyl and oxirane groups were monitored as a function of irradiation time. […] These observations indicate the possibility of homopolymer formation. The mixture gelled 1.5 min post irradiation.

For `C1CC2OC2CC1CC1COC2(OC1)OCC(CC1CCC3OC3C1)CO2` (stereo not shown) [BOCHM, 3,9-bis[(7-oxabicyclo[4.1.0]hept-3-yl)methyl]-1,5,7,11-tetraoxaspiro[5.5]undecane], in data set [1], the “Solubility in oxirane base BOCPE” value is less than 10 wt %, the “Solubility in oxirane base UVR 6105” value is given as 30 wt % and the “Solubility in oxirane base UVR 6105/PTHF (80/20)” value was determined as 25 wt %.
`C1CC2(COC3(OC2)OCC2(CCC4OC4C2)CO3)CC2OC12` (stereo not shown) [DOTSHH, 7,26-dioxatrispiro[bicycle[4.1.0]heptane-3,5′-1,3-dioxane-2′2″-1,3-dioxane-5″,4′″-bicyclo[4.1.0]heptane]]: in data set [1], the “Solubility in oxirane base BDDGE/PTHF (80/20)” value was found to be 5 wt %, the “Solubility in oxirane base BOCPE” value worked out at 10 wt % and the “Solubility in oxirane base UVR 6105/PTHF (80/20)” value is given as less than 5 wt %.
In the case of `C1OC2(OCC13CC1OC1C3)OCC1(CO2)CC2OC2C1` (stereo not shown) [DOTSHX, 6,24-dioxatrispiro[bicyclo[3.1.0]hexane-3.5′-1,3-dioxane-2.2′-1,3-dioxane-5″3′″-bicyclo[3.1.0]hexane]], in data set [1], the “Solubility in oxirane base BDDGE/PTHF (80/20)” value is listed as less than 5 wt % and the “Solubility in oxirane base BOCPE” value is less than 5 wt %.
For `C1=CCC(CC2COC3(OC2)OCC(CC2CC=CCC2)CO3)CC1` (stereo not shown) [BCHEM, 3,9-Bis(cyclohex-3-enylmethyl)-1,5,7,11-tetraoxaspiro[5,5]undecane], in data set [1], the “Solubility in oxirane base UVR 6105” value is 15–25 wt % and the “Solubility in oxirane base UVR 6105/PTHF (80/20)” value was found to be 25 wt %.
Take `CC1CC2OC2CC1CC1COC2(OC1)OCC(CC1CC3OC3CC1C)CO2` (stereo not shown) [BMOCHM, 3,9-bis[(4-methyl-7-oxabicyclo[4.1.0]hept-3-yl)methyl]-1,5,7,11-tetraoxaspiro[5,5]undecane]: in data set [1], the “Solubility in oxirane base BOCPE” value is given as less than 10 wt %, the “Solubility in oxirane base UVR 6105” value was determined as 30 wt % and the “Solubility in oxirane base UVR 6105/PTHF (80/20)” value was 25 wt %. The “gel point (mixture gelled)” value in data set [2] is reported as 1.5 min.
As for `CCC1(CC)COC2(COC3(CCC4OC4C3)OC2)OC1` (stereo not shown) [DEODSH, 5,5-diethyl-19-oxdispiro[1,3-dioxane-2,5′-1,3-dioxane-2′,3″-bicyclo[4.1.0]heptane]], in data set [1], the “Solubility in oxirane base BOCPE” value is recorded as greater than 10 wt % and the “Solubility in oxirane base UVR 6105/PTHF (80/20)” value was 40 wt %.
